Test results taken from ChEMBL document CHEMBL3430912, “GSK Tres Cantos Anti-Kinetoplastid Screening (TCAKS) Data”.

Legend:
[1] = tested on: NIH3T3; assay: GSK_TCAKS: pIC50 NIH 3T3 cell line viability assay using luminiscence. Tissue culture surface treated assay plates (1536-well) were used. […] The 100% cells survival control was determined exposing the host-cells to a 0.5% DMSO concentration, whereas the 100% toxicity control was achieved by seeding the cells in presence of Amphotericin B at 50uM. Plates were incubated for four days at 37C, 5% CO2. The assay readout was developed by addition of 5uL of CellTiter-Glo Reagent following the manufacturer's instructions. Luminiscence was measured using a ViewLux.; type: functional, cell-based; settings: Mus musculus, NIH3T3, 96 h
[2] = tested on: Trypanosoma cruzi; assay: (§1) GSK_TCAKS: pIC50 Trypanosoma cruzi Imaging: Infected Cells. […] Cells were then washed once with PBS before infection. T. cruzi trypomastigotes, collected at days 5 to 8 after infection from LLC-MK2 parasite infected cultures, were allowed to swim out for 4h at 37C from a centrifuged pellet (2,500 rpm/10 min/room temperature). Trypomastigotes were then collected and counted in a CASY Cell Counter. Trypomastigotes, in supplemented DMEM, were added to H9c2 cultures in a multiplicity of infection of 1 and incubated for 18 h. Cells were washed once with PBS before incubation of the infected H9c2 monolayer with trypsin (Life-Technologies) to detach cells from the flask. Cells were counted in a CASY Cell Counter using a 150 um capillary and their density set at 5 * 10^4 cells per mL in supplemented assay DMEM. Infected H9c2 were dispensed into 384-well poly-lysine coated assay plates at 50uL per well using a Multidrop Combi dispenser. After seeding them, the plates were incubated at 37C, 5% CO2 for 72h. Cultures were then fixed and stained by addition of 50 uL of a solution containing 8% formaldehyde and 4 uM DRAQ5 DNA dye (BioStatus, UK) per well. […] Five images were collected per well for reliable statistical analysis. Automated image analysis was performed with a script developed on Acapella High Content Imaging and Analysis Software (PerkinElmer). Output: percentage of infected cells per well as a second infection marker.; type: functional, organism-based, Rattus norvegicus; settings: H9c2, 4 h
[3] = tested on: Trypanosoma cruzi; assay: GSK_TCAKS: pIC50 Trypanosoma cruzi Imaging: Amastigotes/Cell. […] Cells were then washed once with PBS before infection. T. cruzi trypomastigotes, collected at days 5 to 8 after infection from LLC-MK2 parasite infected cultures, were allowed to swim out for 4h at 37C from a centrifuged pellet (2,500 rpm/10 min/room temperature). Trypomastigotes were then collected and counted in a CASY Cell Counter. Trypomastigotes, in supplemented DMEM, were added to H9c2 cultures in a multiplicity of infection of 1 and incubated for 18 h. Cells were washed once with PBS before incubation of the infected H9c2 monolayer with trypsin (Life-Technologies) to detach cells from the flask. Cells were counted in a CASY Cell Counter using a 150 um capillary and their density set at 5 * 10^4 cells per mL in supplemented assay DMEM. Infected H9c2 were dispensed into 384-well poly-lysine coated assay plates at 50uL per well using a Multidrop Combi dispenser. After seeding them, the plates were incubated at 37C, 5% CO2 for 72h. Cultures were then fixed and stained by addition of 50 uL of a solution containing 8% formaldehyde and 4 uM DRAQ5 DNA dye (BioStatus, UK) per well. […] Five images were collected per well for reliable statistical analysis. Automated image analysis was performed with a script developed on Acapella High Content Imaging and Analysis Software (PerkinElmer). Output: number of amastigotes per cell as infection level measurement.; type: functional, organism-based, Rattus norvegicus; settings: H9c2, 4 h
[4] = tested on: Leishmania donovani; assay: (§2) GSK_TCAKS: pIC50 Leishmania donovani Imaging: Amastigotes/Macrophages. Assay plates (384-well) were prepared by adding 250nL of compound to each well. For single shot assay, the final compound concentration was 5 uM. […] Automated image analysis was performed with a script developed on Acapella High Content Imaging and Analysis Software (PerkinElmer). Output: Average number of amastigotes per macrophage cell were reported for each well.; type: functional, organism-based, Homo sapiens; settings: THP-1
[5] = tested on: Trypanosoma cruzi; assay: GSK_TCAKS: pIC50 Trypanosoma cruzi viability assay using beta-GAL activity. This assay was run at single shot at 5uM compound concentration per well. The biological reagents consisted of NIH-3T3 host cells and trypomastigotes parasitic cells; both cell types were set to a 3.3 * 10^5 cells/mL dilution in assay DMEM by means of a CASY cell counter device using a 60um capillary. 6 uL of the mixture were dispensed per well (about 1 * 10^3 host-cells and 1 * 10^3 parasites) with a Multidrop Combi dispenser. […] In all wells, the percentage of DMSO never exceeded 0.5%. Plates incubated for four days at 37C, 5% CO2. The substrate used for the assay fluorescence intensity (FLINT) readout was resorufin-beta-D-galactopiranoside (Sigma-Aldrich) at 5uM per well. It was diluted in PBS supplemented with the soft detergent Igepal (Fluka).; type: functional, organism-based, Mus musculus; settings: Tulahuen, NIH3T3
[6] = tested on: Leishmania donovani; assay: as §2, with “THP-1 Host Macrophages.” for “Amastigotes/Macrophages.”, “THP-1” for “Average number of amastigotes per macrophage”, “cell count” for “cell”; type: functional, organism-based, Homo sapiens
[7] = tested on: Leishmania donovani; assay: as §2, with “Infected Macrophages.” for “Amastigotes/Macrophages.”, “Percent” for “Average number”, “infected” for “amastigotes per”, “cells” for “cell”; type: functional, organism-based, Homo sapiens; settings: THP-1
[8] = target: Sterol 14-alpha demethylase (Trypanosoma cruzi (strain CL Brener), UniProt Q7Z1V1); assay: GSK_TCAKS: pIC50 CYP51 from Trypanosoma cruzi.; type: functional
Sequence of Sterol 14-alpha demethylase (Q7Z1V1 whole entry): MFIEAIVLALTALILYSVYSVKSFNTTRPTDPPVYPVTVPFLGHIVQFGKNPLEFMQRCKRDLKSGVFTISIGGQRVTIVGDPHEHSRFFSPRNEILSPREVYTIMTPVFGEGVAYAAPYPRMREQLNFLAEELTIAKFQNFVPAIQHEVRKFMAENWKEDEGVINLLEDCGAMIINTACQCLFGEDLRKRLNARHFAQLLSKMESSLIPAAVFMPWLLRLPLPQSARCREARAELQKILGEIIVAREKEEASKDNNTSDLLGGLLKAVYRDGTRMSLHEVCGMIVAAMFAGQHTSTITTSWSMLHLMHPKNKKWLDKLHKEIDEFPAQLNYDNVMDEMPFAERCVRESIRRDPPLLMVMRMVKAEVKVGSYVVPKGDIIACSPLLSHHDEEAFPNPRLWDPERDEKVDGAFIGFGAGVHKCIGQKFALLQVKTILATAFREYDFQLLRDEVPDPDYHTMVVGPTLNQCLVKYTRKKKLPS

[9] = tested on: Trypanosoma brucei brucei; assay: GSK_TCAKS: pIC50 Trypanosoma brucei viability assay using fluorescence intensity. Assay plates (1536-well) were prepared by dispensing 25nL of compound solution per well using an Echo acoustic dispenser (Labcyte).; type: functional, organism-based; settings: Lister 427, 2 h
[10] = tested on: Trypanosoma brucei brucei; assay: GSK_TCAKS: pIC50 Trypanosoma brucei viability assay using luminiscence. Assay plates (1536-well) were prepared. T. brucei cultures were harvested and counted in a CASY cell counter. A parasite suspension was prepared at a final concentration of 5 * 10^4 cells/mL in complete HMI9 medium and 6uL was dispensed to all wells containing compounds using a Multidrop Combi dispenser. 6uL of HMI9 media with 0.4% DMSO were dispensed to control columns. Plates were incubated for 24 h at 37C, 5% CO2 then tempered for 10 min at room temperature. ATP content was quantified by adding 4 uL of CellTiter-Glo Reagent (Promega) according to the manufacturer's instructions. Luminescence was measured using a ViewLux.; type: functional, organism-based; settings: Lister 427, CASY
[11] = tested on: Leishmania donovani; assay: GSK_TCAKS: pIC50 Leishmania donovani viability assay using fluorescence intensity. Assay plates (1536-well) were prepared by adding 30nL per well of compound. For single shot assay, the final compound concentration was 5uM. […] Briefly, eGFP LdBOB axenic amastigotes were harvested, fixed and counted in a CASY cell counter (Roche-Applied Science). A final concentration of 1.5 * 10^5 cells per well were prepared in amastigote media containing 500 U/mL penicillin/streptomycin (Invitrogen) and 6uL was dispensed to each experimental well using a Multidrop Combi dispenser (Thermo Scientific). 6uL of assay media was dispensed to control columns used as reference for 100% compound response. Following incubation for 72 h at 37C, 5% CO2, 2 uL of resazurin was added to each well at a final concentration of 0.5 mM in phosphate buffered saline (PBS) with IGEPAL (Sigma-Aldrich), 0.05% (v/v).; type: functional, organism-based
[12] = GSK_TCAKS: pIC50 HepG2 human cell line viability assay using luminiscence. […] Seeding density was checked to ensure that new mono-layers were not more than 50% confluent at the time of harvesting. Cell suspension was added to 500 mL of the same medium at a final density of 1.2 * 10^5 cells/mL. This cell suspension was dispensed (25 uL, 3000 cells per well) into 384-well clear-bottom plates using a Multidrop Combi dispenser. Prior to addition of the cell suspension, the screening compounds (250 nL) were pre-dispensed into the plates with an Echo liquid handler. Plates were incubated for 48 h at 37C, 5% CO2. After incubation, plates equilibrated at room temperature for 30 min before proceeding to develop the luminescent signal. The signal developer, CellTiter-Glo Reagent, was allowed to equilibrate at room temperature for 30 min and added to the plates (25uL per well) using a Multidrop Combi dispenser. Plates were left for 10 min at room temperature for stabilization and then read using a ViewLux.; type: toxicity, cell-based
[13] = tested on: Trypanosoma cruzi; assay: as §1, with “H2C9” for “Trypanosoma cruzi”, “H9c2 Host Cardiomyocytes.” for “Infected Cells.”, “Number” for “percentage”, “H9c2 Host Cardiomyocytes nuclei to determine drug-related cytotoxicity.” for “infected cells per well as a second infection marker.”; type: functional, organism-based, Rattus norvegicus; settings: H9c2, 4 h

Structure (SMILES)	IC50 [1]	IC50 [2]	IC50 [3]	IC50 [4]	IC50 [5]	IC50 [6]	IC50 [7]	IC50 [8]	IC50 [9]	IC50 [10]	IC50 [11]	IC50 at 48 h [12]	IC50 [13]
O=c1cc(NCCCNC2CCOc3c(I)cc(Cl)cc32)[nH]c2ccccc12 (stereo not drawn)	25.1 µM	0.316 µM	0.158 µM	12.6 µM	0.794 µM	20 µM	20 µM	15.8 µM	0.01 µM	0.02 µM	31.6 µM	63.1 µM	25.1 µM
Cc1sc(C)c(C(F)(F)F)c1CNCCCNc1cc(=O)c2ccccc2[nH]1	10 µM	1 µM	0.501 µM	25.1 µM	0.794 µM	31.6 µM	50.1 µM	20 µM	0.01 µM	0.0126 µM	> 50.1 µM	50.1 µM	> 50.1 µM
N#Cc1nc(C=Cc2ccccc2)oc1NCc1cccnc1	12.6 µM	0.398 µM	0.398 µM	31.6 µM	0.251 µM	31.6 µM	39.8 µM		15.8 µM	31.6 µM	25.1 µM	> 100 µM	15.8 µM
CCN(C)Cc1ccc(N2CCC(NS(=O)(=O)c3ccc4c(c3)CCO4)CC2)nc1	12.6 µM	1.26 µM	1 µM		0.631 µM	> 50.1 µM	> 50.1 µM	> 100 µM	> 39.8 µM	39.8 µM	> 50.1 µM	> 100 µM	> 50.1 µM
Cn1c(CN2CCN(c3ncc(C(F)(F)F)cc3Cl)CC2)nc2ccncc21	10 µM	1 µM	1 µM		0.794 µM	6.31 µM	> 50.1 µM	0.0794 µM	6.31 µM	> 39.8 µM	5.01 µM	> 100 µM	> 50.1 µM
FC(F)(F)c1cc(C2CCCN(Cc3c[nH]c4ccccc34)C2)nc2ncnn12 (stereo not drawn)	20 µM	10 µM	6.31 µM	> 50.1 µM	1.58 µM	15.8 µM	> 50.1 µM		> 39.8 µM	> 39.8 µM	> 50.1 µM	> 100 µM	> 50.1 µM
Fc1ccccc1N1C[C@H]2CCN(c3cccnc3)C[C@H]2C1	12.6 µM	0.2 µM	0.2 µM		0.2 µM	> 50.1 µM	> 50.1 µM	0.0631 µM	31.6 µM	> 39.8 µM	12.6 µM	> 100 µM	> 50.1 µM
CC(Cn1ccnc1)NC(=O)C=Cc1ccc(Cl)cc1 (stereo not drawn)	> 50.1 µM	1 µM	0.631 µM	> 50.1 µM	0.398 µM	> 50.1 µM	> 50.1 µM	0.158 µM	> 39.8 µM		> 50.1 µM	> 100 µM	> 50.1 µM
